Source: the NIST ThermoML archive (doi:10.1016/j.jct.2019.02.003)
± gives the expanded uncertainty stated by the source.

Conditions: 84 kPa, Liquid, Pycnometric method

CN(CCO)CCO [N-methyldiethanolamine]
Conditions	mass density [kg/m3]
293.15 K	1041.12 ± 1.9
303.15 K	1033.6 ± 1.9
313.15 K	1025.83 ± 1.9
323.15 K	1017.8 ± 1.9
333.15 K	1010.8 ± 1.9
343.15 K	1002.76 ± 1.9
